{
  "source": "patent US7144862B2",
  "about": "“Orally administered peptides to ameliorate atherosclerosis” (The Regents of the University of California, priority 2000, dated 2006)",
  "key": {"[1]": {"test": "DSC, chain melting transition of DMPC", "assay_type": "physicochemical", "conditions": "DMPC/peptide 100:1 (mol/mol)", "procedure": "A known amount of phospholipid was dissolved in chloroform. For one set of samples, peptide was dissolved in methanol and added to a solution of DiPoPE in chloroforn/methanol (2:1, v:v). For both, pure lipid samples and the organic solutions of lipid and peptide, solvent was removed under a slow stream of nitrogen. Residual solvent was removed under vacuum. […] For DMPC, four consecutive scans with a 60 minute equilibration time between scans were taken. DSC thermograms were analyzed using the software provided by MicroCal Inc., Amherst, Mass., and Origin, version 5.0.\nThe effect of these 18A analogues on the chain melting transition of multilamellar vesicles of DMPC was studied by DSC using peptide-lipid mixtures at 100:1 lipid/peptide molar ratio."}, "human artery wall cells": {"system": "human artery wall cells", "test": "Lipoproteins from 5F-injected mice tested in human artery wall cell cocultures (lipid hydroperoxides, monocyte chemotactic activity)", "assay_type": "cell-based", "conditions": "20 μg/mouse/day", "procedure": "Cocultures of human artery wall cells, monocyte isolation, isolation of lipoproteins by ultracentrifugation from the plasma of normal human donors or from mouse plasma by FPLC, and determination of lipid hydroperoxides and monocyte chemotactic activity were performed according to standard methods. All human subject participation was with informed consent approved by the UCLA Human Subjects Protection Committee. The protocol for testing mouse lipoproteins in the coculture was also performed as follows: Briefly, LDL and HDL were isolated by FPLC from mouse plasma from mice fed the atherogenic diet and injected with vehicle (PBS), or with peptide 5F at 20 μg/mouse/day. The cocultures were treated with human LDL at 200 μg/ml LDL protein, or mouse LDL at 200 μg/ml or with 200 μg/ml human LDL+human HDL at 350 μg/ml of HDL protein or mouse HDL at 300 μg/ml or with mouse HDL alone at 300 μg/ml. […] The supernatants were collected and analyzed for Auerbach lipid hydroperoxide equivalents."}, "[2]": {"target": "T1, lecithin:cholesterol acyl transferase (LCAT) (Homo sapiens, UniProt P04180)", "T1 construct": "LCAT was isolated from fresh normolipidemic plasma by the method of Albers et al; from tissue; host or cells: fresh normolipidemic plasma", "T1 sequence (P04180 25-440)": "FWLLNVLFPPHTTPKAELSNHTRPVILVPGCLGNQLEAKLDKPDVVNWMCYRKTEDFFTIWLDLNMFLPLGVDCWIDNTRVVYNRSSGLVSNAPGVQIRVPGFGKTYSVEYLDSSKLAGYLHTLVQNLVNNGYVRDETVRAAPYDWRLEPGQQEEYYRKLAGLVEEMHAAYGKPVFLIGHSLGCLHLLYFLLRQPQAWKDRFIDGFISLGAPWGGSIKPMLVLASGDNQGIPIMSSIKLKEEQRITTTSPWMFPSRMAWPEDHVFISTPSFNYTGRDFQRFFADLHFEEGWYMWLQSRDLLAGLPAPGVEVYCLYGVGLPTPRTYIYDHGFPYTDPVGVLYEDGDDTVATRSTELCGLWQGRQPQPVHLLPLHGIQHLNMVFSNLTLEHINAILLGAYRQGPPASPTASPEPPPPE", "test": "Assay of LCAT activity", "assay_type": "biochemical", "conditions": "20 μg/ml peptide, egg PC-cholesterol vesicles", "procedure": "LCAT was isolated from fresh normolipidemic plasma by the method of Albers et al. (1986) Methods Enzymol. 129: 763–783, with some modifications. The density of the plasma was adjusted to 1.21 g/ml and it was centrifuged at 175,000 g for 24 h. The LCAT containing fraction was subjected to Affi-Gel Blue chromatography followed by DE-52 chromatography. LCAT was eluted from the DE-52 column using a 75 to 200 mM NaCl gradient in Tris buffer (10 mM, pH 7.6).\nThe substrate was prepared by sonicating egg PC/cholesterol (90:20 mol/mol) containing trace amounts of 7α-^3H cholesterol in a Branson 250 sonifier for 12 mins to obtain small unilamellar vesicles. The substrate (50 μl) was incubated with 5 μg of peptide or human apo A-I and 50 μl of BSA (40 μg/ml) for 1 h at 37° C. The total volume was brought up to 150 μl. After incubating for 1 h, 100 μl of LCAT was added and incubated for 1 h at 37° C. and the reaction was quenched by spotting 10 μl on a silica strip. Cholesterol and cholesteryl ester were separated by thin layer chromatography of the silica strip in hexane:chloroform (2:1 v/v) mixture. […] The positions of the standards were used to cut the strip into two and the two parts were counted in scintillation fluid in a Packard Tri Carb 4530. […] The activation of LCAT by the peptides is expressed as a percentage of the total activation by apo A-I ."}, "[3]": {"conditions": "mouse, in vivo, ip", "description": "Mice were acquired at six weeks of age, and randomized into groups of 20, except that a negative control group of 10 received no treatments and was given standard rodent chow. At eight weeks of age, the treatment groups were placed on a modified Thomas-Hartroft atherogenic diet (#TD88051; Teklad, Madison, Wis.), and injections were begun. […] Animals were injected intraperitoneally daily for 16 weeks, including weekends and holidays.\nAt the end of the study (week 16), at the last bleeding, the heart and the liver were excised. […] The livers were removed and weighed."}, "[4]": {"test": "Antibody detection by indirect ELISA after 16 weeks of daily injection", "assay_type": "in vivo, mouse", "conditions": "plasma at conclusion of 16-week injection period", "procedure": "To determine whether daily injections of peptides elicited any immune response in mice, indirect ELISA titration (Engvall (1980) Meth. Enzymol. 70:419–439) was carried out with plasma taken from mice at the time of organ collection (following sixteen weeks of daily injection). Plates were coated with the injected peptides or MoAI (10 μg/ml). Plates were incubated overnight. After thorough washing with borate buffered saline (pH 8.2) containing 0.05% Tween 20, and blocking with buffer (0.1% gelatin and 0.1% BSA in borate buffer) for 1 h, 200 μl of the diluted mouse plasma (1:100 dilution) samples were serially diluted 1:1 with borate-buffered saline. Biotinylated goat antibody to mouse IgG (0.1 μg/ml) was then added to the wells and the plates were treated with SA-HRP (Streptavidin-horse radish peroxidase) for an hour and developed with ABTS and peroxide as substrate. The plates were incubated overnight at room temperature after every addition of antigen/antibody and washed thoroughly with borate buffered saline (pH 8.2) containing 0.05% Tween 20, and blocked with buffer (0.1% gelatin and 0.1% BSA in borate buffer) for 1 h before the next addition."}, "[5]": {"test": "Surface pressure measurements: monolayer exclusion pressure", "assay_type": "physicochemical", "conditions": "EPC monolayer; reproducibility ± 1 dyn/cm", "procedure": "An insoluble monolayer of egg phosphatidylcholine (EPC) was spread at the air-water interface in a Teflon dish at room temperature to give an initial surface pressure (πi) in the range of 5–45 dyn/cm. A solution of peptides in PBS containing 1.5M Gdn. HCl was carefully injected in to the subphase to give a final concentration of 50 μg/dL. The Gdn. HCl was diluted in the subphase to a final concentration of ≦1 mM to allow the peptides to renature. The subphase was stirred continuously and the increase in EPC monolayer surface pressure (Δπ) was recorded until a steady state value was obtained. The value of the initial surface pressure (πi) at which the peptides no longer penetrate the EYPC monolayer i.e. the exclusion pressure (πe), was calculated by extrapolating the πi vs Δπ linear regression fit to Δπ=0 dyn/cm."}},
  "data": [
    {"substance": "Ac-DWLKAFYDKVFEKFKEFF-NH2 [Peptide 5F, Ac-D-W-L-K-A-F-Y-D-K-V-F-E-K-F-K-E-F-F-NH2]", "values": [
      {"measurement": "TCM(° C.)", "setting": "[1]; 1.5 mM DMPC, chain melting transition temperature", "value": 23.2, "unit": "°C"},
      {"measurement": "ΔHCM (kcals/mol)", "setting": "[1]; enthalpy of the transition", "value": 4.9, "unit": "kcals/mol"},
      {"measurement": "ΔT1/2 (° C.)", "setting": "[1]; width at half maximum of the transition", "value": 0.5, "unit": "°C"},
      {"measurement": "ability of HDL from injected mice to inhibit human LDL oxidation and LDL-induced monocyte chemotactic activity", "setting": "human artery wall cells; mouse HDL 300 μg/ml with human LDL 200 μg/ml", "value": "as effective in inhibiting human LDL oxidation and preventing LDL-induced monocyte chemotactic activity in the cocultures as was normal human HDL"},
      {"measurement": "oxidation of, and monocyte chemotactic activity induced by, LDL from injected mice versus PBS", "setting": "human artery wall cells; mouse LDL 200 μg/ml", "value": "less readily oxidized and induced less monocyte chemotactic activity"},
      {"measurement": "LCAT activation relative to apo A-I (100%)", "setting": "[2]", "value": "80 % of apo A-I"},
      {"measurement": "toxicity", "setting": "[3]", "value": "No toxicity"},
      {"measurement": "antibodies against the injected material", "setting": "[4]", "value": "No antibodies were detected"},
      {"measurement": "Monolayer Exclusion Pressure(πc)", "setting": "[5]", "value": 45, "unit": "dyn/cm"}
    ]}
  ]
}
